Where “and” joins values, the source holds several entries; their conditions need not be identical. Equal values may be shown once.
Conditions: Gas, double Helmholtz acoustic resonator

F[Si](F)(F)F [silicon tetrafluoride]
Conditions | kinematic viscosity [m2/s] | speed of sound [m/s]
215 K, 198.15 kPa | 1.06e-06 | 136.99
215 K, 283.66 kPa | 7.32e-07 | 135.34
215 K, 378.5 kPa | 5.24e-07 | 133.42
215 K, 461.43 kPa | 4.37e-07 | 131.7
215 K, 551.52 kPa | 3.6e-07 | 129.72
215 K, 649.39 kPa | 3.03e-07 | 127.46
215 K, 746.64 kPa | 2.59e-07 | 125.06
230 K, 271.49 kPa | 8.88e-07 | 141.02
230 K, 424.62 kPa | 5.63e-07 | 138.59
230 K, 578.31 kPa | 3.98e-07 | 136.01
230 K, 742.99 kPa | 2.84e-07 | 133.07
230 K, 897.83 kPa | 2.5e-07 | 130.19
230 K, 1088.3 kPa | 2.9e-07 | 126.35
230 K, 1251 kPa | 1.76e-07 | 122.68
245 K, 248.32 kPa | 1.09e-06 | 146.4
245 K, 393.67 kPa | 6.6e-07 | 144.55
245 K, 542.46 kPa | 4.92e-07 | 142.59
245 K, 703.75 kPa | 3.7e-07 | 140.39
245 K, 873.41 kPa | 2.95e-07 | 138
245 K, 1034.5 kPa | 2.46e-07 | 135.63
245 K, 1220 kPa | 2.08e-07 | 132.78
245 K, 1434.3 kPa | 1.74e-07 | 129.26
245 K, 1599.8 kPa | 1.55e-07 | 126.37
245 K, 1777.8 kPa | 1.4e-07 | 123.04
245 K, 1958.5 kPa | 1.25e-07 | 119.34
260 K, 206.14 kPa | 1.34e-06 | 151.46
260 K, 410.06 kPa | 7.49e-07 | 149.46
260 K, 617.98 kPa | 4.82e-07 | 147.22
260 K, 830.76 kPa | 3.54e-07 | 144.88
260 K, 1047.1 kPa | 2.74e-07 | 142.41
260 K, 1252 kPa | 2.3e-07 | 140.01
260 K, 1498.2 kPa | 1.91e-07 | 137.01
260 K, 1794.3 kPa | 1.58e-07 | 133.23
260 K, 2026.6 kPa | 1.39e-07 | 130.08
260 K, 2282.2 kPa | 1.25e-07 | 126.45
260 K, 2541.7 kPa | 1.1e-07 | 122.51
274.58 K, 524.86 kPa | 6.36e-07 | 153.14
274.58 K, 642.96 kPa | 5.09e-07 | 152.03
274.58 K, 744.26 kPa | 4.24e-07 | 151.15
274.58 K, 845.26 kPa | 3.88e-07 | 150.26
274.58 K, 947.16 kPa | 3.48e-07 | 149.34
274.58 K, 1048.3 kPa | 3.11e-07 | 148.41
274.58 K, 1150.3 kPa | 2.86e-07 | 147.47
274.58 K, 1252.2 kPa | 2.59e-07 | 146.53
274.58 K, 1353.8 kPa | 2.42e-07 | 145.57
274.58 K, 1454.6 kPa | 2.28e-07 | 144.62
274.58 K, 1556 kPa | 2.09e-07 | 143.64
274.58 K, 1657.9 kPa | 2.01e-07 | 142.67
274.58 K, 1764.4 kPa | 1.82e-07 | 141.62
274.58 K, 1878.1 kPa | 1.7e-07 | 140.5
274.58 K, 1998.5 kPa | 1.64e-07 | 139.34
274.58 K, 2141.9 kPa | 1.52e-07 | 137.92
274.58 K, 2244.2 kPa | 1.42e-07 | 136.85
274.58 K, 2354.1 kPa | 1.36e-07 | 135.74
274.58 K, 2474 kPa | 1.31e-07 | 134.5
274.58 K, 2776.6 kPa | 1.15e-07 | 131.33
274.58 K, 2951.3 kPa | 1.08e-07 | 129.47
300 K, 386.04 kPa | 1.14e-06 | 161.89
300 K, 581.57 kPa | 7.42e-07 | 160.87
300 K, 775.29 kPa | 5.2e-07 | 159.49
300 K, 975.51 kPa | 4.04e-07 | 158.17
300 K, 1173.9 kPa | 3.25e-07 | 156.88
300 K, 1443.4 kPa | 2.69e-07 | 155.17
300 K, 1648.7 kPa | 2.37e-07 | 153.86
300 K, 1872.1 kPa | 2.11e-07 | 152.44
300 K, 2157.9 kPa | 1.71e-07 | 150.6
300 K, 2526.1 kPa | 1.53e-07 | 148.3
324.96 K, 582.54 kPa | 8.84e-07 | 168.12
324.96 K, 731.36 kPa | 6e-07 | 167.21
324.96 K, 1070.8 kPa | 4.22e-07 | 165.71
324.96 K, 1257.4 kPa | 3.6e-07 | 164.87
324.96 K, 1487.6 kPa | 3.1e-07 | 163.84
324.96 K, 1769 kPa | 2.59e-07 | 162.6
324.96 K, 1936.2 kPa | 2.42e-07 | 161.88
324.96 K, 2114.4 kPa | 2.11e-07 | 161.1
324.96 K, 2322.2 kPa | 1.99e-07 | 160.23
324.96 K, 2541 kPa | 1.84e-07 | 159.34

FC1(F)C(F)(F)C(F)(F)C1(F)F [octafluorocyclobutane]
Conditions | kinematic viscosity [m2/s] | speed of sound
300 K, 160.13 kPa | 8.54e-07 | 109.85 m/s
300 K, 180.38 kPa | 7.62e-07 | 109.17 m/s
300 K, 209.45 kPa | 6.47e-07 | 108.13 m/s
300 K, 239.58 kPa | 5.55e-07 | 107.04 m/s
310 K, 167.11 kPa | 1.04e-06 | 111.91 m/s
310 K, 212.21 kPa | 6.65e-07 | 110.44 m/s
310 K, 259.63 kPa | 5.45e-07 | 108.88 m/s
310 K, 319.54 kPa | 4.4e-07 | 106.84 m/s
310 K, 359.99 kPa | 4.21e-07 | 105.47 m/s
315 K, 195.64 kPa | 7.57e-07 | 112.23 m/s
315 K, 234.75 kPa | 6.39e-07 | 111.1 m/s
315 K, 272.93 kPa | 5.38e-07 | 109.92 m/s
315 K, 312.27 kPa | 4.61e-07 | 108.66 m/s
315 K, 357.7 kPa | 3.99e-07 | 107.16 m/s
315 K, 410.27 kPa | 3.42e-07 | 105.34 m/s
320 K, 122.6 kPa | 1.12e-06 | 115.18 m/s
320 K, 172.92 kPa | 9.2e-07 | 113.83 m/s
320 K, 222.82 kPa | 6.6e-07 | 112.47 m/s
320 K, 274.43 kPa | 5.38e-07 | 111.03 m/s
320 K, 326.85 kPa | 4.48e-07 | 109.44 m/s
320 K, 380.03 kPa | 3.92e-07 | 107.76 m/s
320 K, 482.22 kPa | 2.95e-07 | 104.31 m/s
330 K, 117.49 kPa | 1.43e-06 | 117.54 m/s
330 K, 189.29 kPa | 8.81e-07 | 115.79 m/s
330 K, 215.35 kPa | 7.77e-07 | 115.12 m/s
330 K, 288.39 kPa | 5.63e-07 | 113.25 m/s
330 K, 290.78 kPa | 5.67e-07 | 113.11 m/s
330 K, 368.85 kPa | 4.3e-07 | 111.06 m/s
330 K, 376.53 kPa | 4.2e-07 | 110.78 m/s
330 K, 450.7 kPa | 3.45e-07 | 108.71 m/s
330 K, 465.61 kPa | 3.3e-07 | 108.18 m/s
330 K, 534.61 kPa | 2.83e-07 | 106.13 m/s
330 K, 536.09 kPa | 2.8e-07 | 106 m/s
330 K, 621.46 kPa | 2.37e-07 | 103.15 m/s and 103.25 m/s
345.04 K, 244.86 kPa | 7.3e-07 | 117.72 m/s
345.04 K, 347.35 kPa | 5.14e-07 | 115.42 m/s
345.04 K, 445.79 kPa | 3.86e-07 | 113.12 m/s
345.04 K, 553.32 kPa | 3.05e-07 | 110.35 m/s
345.04 K, 652.37 kPa | 2.52e-07 | 107.68 m/s
345.04 K, 772.66 kPa | 2.06e-07 | 104.17 m/s
345.04 K, 881.89 kPa | 1.76e-07 | 100.69 m/s
360 K, 216.1 kPa | 9.15e-07 | 121.47 m/s
360 K, 407.3 kPa | 4.74e-07 | 117.75 m/s
360 K, 609.73 kPa | 3.2e-07 | 113.46 m/s
360 K, 802.73 kPa | 2.19e-07 | 108.94 m/s
360 K, 1012.2 kPa | 1.68e-07 | 103.47 m/s
360 K, 1203.3 kPa | 1.35e-07 | 97.73 m/s
375 K, 183.85 kPa | 1.12e-06 | 124.97 m/s
375 K, 378.87 kPa | 5.53e-07 | 121.72 m/s
375 K, 568.99 kPa | 3.54e-07 | 118.34 m/s
375 K, 758.63 kPa | 2.59e-07 | 114.75 m/s
375 K, 960.1 kPa | 2.05e-07 | 110.61 m/s
375 K, 1188.2 kPa | 1.56e-07 | 105.48 m/s
375 K, 1402 kPa | 1.28e-07 | 100.08 m/s
375 K, 1620.4 kPa | 1.06e-07 | 93.75 m/s

Reference: the NIST ThermoML archive (doi:10.1016/j.jct.2007.07.002)
